Results as given in article PMC3221803 (Journal of neuroscience methods, 2011).
Several values for one entry are separate records, joined by “and”; a condition that tells them apart may be missing. Equal values may be shown once. Read-outs that look alike come from different tables or passages of the source.

Columns and labels:
hNET [1] = molecular target: T1, hNET (Homo sapiens, UniProt P23975); details: read-out: IC50 for inhibition of [^3H]NE uptake; ref Eshleman et al., 1999; cited from earlier work
hNET [2] = molecular target: T1, hNET; assay: biochemical; format: binding
hNET [3] = molecular target: T1, hNET; details: intact cells, 25°C

T1 sequence (P23975 whole entry): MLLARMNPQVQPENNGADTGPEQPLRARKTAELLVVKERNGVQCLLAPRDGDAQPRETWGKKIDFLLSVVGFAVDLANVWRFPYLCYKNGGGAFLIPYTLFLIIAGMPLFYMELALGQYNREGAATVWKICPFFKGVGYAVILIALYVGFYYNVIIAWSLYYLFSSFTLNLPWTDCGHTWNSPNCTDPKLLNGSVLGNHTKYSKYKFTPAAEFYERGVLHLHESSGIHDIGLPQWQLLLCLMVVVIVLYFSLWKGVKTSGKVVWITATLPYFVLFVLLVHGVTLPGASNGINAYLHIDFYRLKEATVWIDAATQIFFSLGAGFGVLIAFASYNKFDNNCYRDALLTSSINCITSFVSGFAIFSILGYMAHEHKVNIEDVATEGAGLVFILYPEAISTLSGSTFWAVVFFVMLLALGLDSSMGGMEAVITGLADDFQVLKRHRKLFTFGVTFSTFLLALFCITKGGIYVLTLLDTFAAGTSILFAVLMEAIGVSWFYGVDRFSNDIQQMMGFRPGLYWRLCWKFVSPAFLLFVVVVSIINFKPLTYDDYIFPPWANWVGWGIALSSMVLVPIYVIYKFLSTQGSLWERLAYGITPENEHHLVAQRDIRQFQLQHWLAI

SMILES | IC50 (hNET [1]) [nM] | Time to maximal [^3H]CFT binding (hNET [2]) [min] | Kd (hNET [2]; Kd of CFT) [nM] | Kd (hNET [2]; Kd of [^3H]CFT binding) | Time to maximal [^3H]CFT binding (hNET [3]) [min] | Potency in inhibiting [^3H]CFT binding relative to [^3H]NE uptake (Ki ratio) (hNET [2])
COC(=O)[C@H]1[C@@H](c2ccc(F)cc2)C[C@@H]2CC[C@H]1N2C [CFT, 2β-carbomethoxy-3β-(4-fluorophenyl)-tropane] | 33.3 | 15 | 18 ± 5 | 35.7 nM and 22.1 nM and 34.5 nM | 15 | –
CN1[C@@H]2CC[C@H]1C[C@@H](OC(c1ccccc1)c1ccccc1)C2 [benztropine] | – | – | – | – | – | equipotent
OC1(c2ccc(Cl)cc2)c2ccccc2C2=NCCN21 (stereo not shown) [mazindol] | – | – | – | – | – | weaker
